Source: patent US10596151B2, “Methods and pharmaceutical compositions for reducing arterial stiffness with a combination of a therapeutic agent blocking the angiotensin receptor and a therapeutic agent inhibiting the NEP enzyme” (Novartis AG, priority 2015, dated 2020)

Columns and labels:
[1] = tested on: elderly patients (≥60 years) with essential hypertension; assay: […] study: central aortic pressures (CASP, CPP/CAPP, central DBP, central MAP) by SphygmoCor X-CEL; type: in vivo, human; details: for LSM change from baseline (SE) in mean CPP at Week 12 endpoint / LSM change from baseline (SE) in mean CASP at Week 12 endpoint / LSM change from baseline (SE) in mean CASP at Week 52 endpoint / LSM change from baseline (SE) in mean CPP at Week 52 endpoint: FAS; for LSM change from baseline (SE) in mean CPP at Week 12 endpoint / LSM change from baseline (SE) in mean CASP at Week 12 endpoint: monotherapy; for LSM change from baseline (SE) in mean CASP at Week 12 endpoint: LCZ696 400 mg/day, olmesartan 40 mg/day; for LSM change from baseline (SE) in mean CASP at Week 52 endpoint / LSM change from baseline (SE) in mean CPP at Week 52 endpoint: Week 52 endpoint (LOCF), add-on amlodipine/HCTZ allowed
Procedure: The term CAPP refers to central aortic PP. In the context of the present invention CAPP is measured with the SphygmoCor X-CEL System (AtCor Medical, Sydney, Australia) to non-invasively derive the ascending aortic pressure waveform from the brachial waveform using a validated generalised transfer function (GTF). A properly sized BP cuff is linked to a computer and software and the CASP, CAPP, augmentation pressure, and Alx are determined from the analysis of waveform by the system software. […]
The primary and secondary endpoints are changes from baseline in central aortic systolic pressure (CASP) and central aortic PP (CAPP) at week 12, respectively. Other secondary endpoints are the changes in CASP and CAPP at week 52. […] The primary variable will be analysed using a two-way analysis of covariance.
The SphygmoCor X-CEL System (AtCor Medical, Sydney, Australia) is being used to non-invasively derive the ascending aortic pressure waveform from the brachial waveform using a validated generalised transfer function (GTF).22 A properly sized BP cuff is linked to a computer and software and the CASP, CAPP, augmentation pressure, and Alx are determined from the analysis of waveform by the system software.
A sample size of 183 completers per group is targeted, which is calculated based on the primary efficacy variable, change from baseline in mean CASP at 12 weeks, assuming a standard deviation of 19 mm Hg. […] Assuming a 15% dropout rate, the total targeted sample size to be randomised is 432 patients (216 per group). The primary variable at the Week 12 endpoint will be analysed using a two-way analysis of covariance (ANCOVA), with treatment and region as factors and the baseline as a covariate. Mean CAPP at the Week 12 endpoint will be analysed using the same type of ANCOVA model used for the primary efficacy analysis. A two-sided significance at 0.05 level will be used for this analysis and a 95% confidence interval for the treatment difference will be provided.

[2] = tested on: elderly patients (≥60 years) with essential hypertension; assay: […] study: mean sitting (brachial) blood pressure and pulse pressure; type: in vivo, human
Source text: (§1) The study enrolled patient from 5 Dec. 2012 to 8 Apr. 2015.
Superiority testing is also planned for the key secondary efficacy assessment, i.e. the reduction in mean central aortic PP (CAPP) after 12 weeks of treatment, and other secondary efficacy assessments such as mean CASP and CAPP after 52 weeks of treatment. Mean aPWV, msSBP, msDBP, msPP, mean ambulatory (ma) BP, maPP, and MAP will also be measured after 12 and 52 weeks of treatment.

[3] = tested on: elderly patients (≥60 years) with essential hypertension; assay: […] study: 24-hour ambulatory brachial and central blood pressure (Mobil-O-Graph); type: in vivo, human
Source text: as §1
The 24-hour maCAP and maPWA will be monitored using the oscillometric device, Mobil-0-Graph (IEM, Stolberg, Germany) with integrated ARC solver algorithms (Austrian Institute of Technology, Vienna, Austria). The traditional Mobil-O-Graph ambulatory blood pressure monitoring (ABPM) device has been available for more than a decade and through several product generations.24-27 The actual blood pressure measuring unit was validated according to the British Hypertension Society (BHS) and the European Society of Hypertension (ESH) recommendations.24,26 The method equipped with a GTF to derive aortic pressure waveforms28 is based on brachial readings acquired in the course of the conventional pressure measurement at diastolic level.
During the signal acquisition procedure, the received raw signals are separated into single waves and checked for their plausibility by means of extreme values and corresponding wavelengths using a cross-correlation approach. Poor waveforms are removed from further processing. After applying the GTF to each single waveform, the procedure is repeated.
With respect to legal issues, the Mobil-O-Graph maPWA monitor with integrated ARC solver algorithms holds approvals from CE, FDA, and JPAL (amongst others).

[4] = tested on: elderly patients (≥60 years) with essential hypertension; assay: PARAMETER study: safety and tolerability assessments; details: human, in vivo, 52 weeks
Source text: The inclusion criteria in the study was designed to enroll patients which met the profile of elderly patients with systolic hypertension and a wide pulse pressure, a characteristic reflective of large artery (aortic) stiffness. […] The study enrolled patient from 5 Dec. 2012 to 8 Apr. 2015.
This was a 52-week study, involving 50 centers from 12 countries (across Europe, South America, Asia and the United States). […] After 12 weeks, patients with uncontrolled BP (msSBP>140 mmHg and/or mean sitting diastolic blood pressure [msDBP]>90 mmHg) were allowed the use of add-on antihypertensives (amlodipine [2.5-5.0 mg] and then hydrochlorothiazide [6.25-25.0 mg]) as needed, at an interval of 4 weeks up to Week 24.
Safety and tolerability assessments include regular monitoring and recording of all adverse events (AEs) and concomitant medications or significant non-drug therapies. Evaluations of routine blood chemistries, blood counts with white cell differential and urine analyses, physical examinations, electrocardiograms (ECGs), and monitoring of vital signs will be performed at regular intervals.

CCCc1nc(C(C)(C)O)c(C(=O)O)n1Cc1ccc(-c2ccccc2-c2nnn[nH]2)cc1 [Olmesartan, reference compound]
LSM change from baseline (SE) in mean CPP at Week 12 endpoint [1]: −3.96 (0.69) mmHg | LSM change from baseline (SE) in mean CASP at Week 12 endpoint [1]: −8.90 (1.01) mmHg | LSM change from baseline (SE) in mean CASP at Week 12 endpoint ([1]; listed as olmesartan): −8.90 mmHg | LSM change from baseline (SE) in mean CPP at Week 12 endpoint ([1]; listed as olmesartan): −3.96 mmHg | LSM change from baseline (SE) in mean CASP at Week 52 endpoint [1]: −14.70 (0.96) mmHg | LSM change from baseline (SE) in mean CPP at Week 52 endpoint [1]: −6.65 (0.69) mmHg | LSM change from baseline (SE) in mean CASP at Week 52 endpoint ([1]; listed as olmesartan): −14.70 mmHg | LSM change from baseline (SE) in mean CPP at Week 52 endpoint ([1]; listed as olmesartan): −6.65 mmHg | Change from baseline to 12 weeks, mscDBP ([1]; mean sitting central diastolic BP, 12 weeks): −5.0 mmHg | Change from baseline to 52 weeks, mscDBP ([1]; mean sitting central diastolic BP, 52 weeks): −8.1 mmHg | Change from baseline to 12 weeks, mscMAP ([1]; mean sitting central mean arterial pressure, 12 weeks, mean): −6.7 mmHg | Change from baseline to 52 weeks, mscMAP ([1]; mean sitting central mean arterial pressure, 52 weeks, mean): −9.1 mmHg | Change from baseline to 12 weeks, msDBP ([2]; mean sitting diastolic BP, 12 weeks, mean): −5.2 mmHg | Change from baseline to 52 weeks, msDBP ([2]; mean sitting diastolic BP, 52 weeks, mean): −8.5 mmHg | Change from baseline to 12 weeks, msMAP ([2]; mean sitting mean arterial pressure, 12 weeks): −8.6 mmHg | Change from baseline to 52 weeks, msMAP ([2]; mean sitting mean arterial pressure, 52 weeks): −12.4 mmHg | Change from baseline to 12 weeks, msPP ([2]; mean sitting pulse pressure, 12 weeks, mean): −4.5 mmHg | Change from baseline to 52 weeks, msPP ([2]; mean sitting pulse pressure, 52 weeks, mean): −7.6 mmHg | Change from baseline to 12 weeks, msSBP ([2]; mean sitting systolic BP, 12 weeks, mean): −9.7 mmHg | Change from baseline to 52 weeks, msSBP ([2]; mean sitting systolic BP, 52 weeks, mean): −16.0 mmHg | Change from baseline to 12 weeks, macDBP ([3]; mean ambulatory central diastolic BP, 12 weeks, mean): −5.8 mmHg | Change from baseline to 52 weeks, macDBP ([3]; mean ambulatory central diastolic BP, 52 weeks, mean): −9.1 mmHg | Change from baseline to 12 weeks, macMAP ([3]; mean ambulatory central mean arterial pressure, 12 weeks, mean): −6.75 mmHg | Change from baseline to 52 weeks, macMAP ([3]; mean ambulatory central mean arterial pressure, 52 weeks, mean): −10.6 mmHg | Change from baseline to 12 weeks, macPP ([3]; mean ambulatory central pulse pressure, 12 weeks, mean): −2.9 mmHg | Change from baseline to 52 weeks, macPP ([3]; mean ambulatory central pulse pressure, 52 weeks, mean): −4.6 mmHg | Change from baseline to 12 weeks, macSBP ([3]; mean ambulatory central systolic BP, 12 weeks): −8.7 mmHg | Change from baseline to 52 weeks, macSBP ([3]; mean ambulatory central systolic BP, 52 weeks): −13.7 mmHg | Change from baseline to 12 weeks, maDBP ([3]; mean ambulatory diastolic BP, 12 weeks): −5.5 mmHg | Change from baseline to 52 weeks, maDBP ([3]; mean ambulatory diastolic BP, 52 weeks): −8.4 mmHg | Change from baseline to 12 weeks, maMAP ([3]; mean ambulatory mean arterial pressure, 12 weeks, mean): −7.1 mmHg | Change from baseline to 52 weeks, maMAP ([3]; mean ambulatory mean arterial pressure, 52 weeks, mean): −11.1 mmHg | Change from baseline to 12 weeks, maPP ([3]; mean ambulatory pulse pressure, 12 weeks): −3.7 mmHg | Change from baseline to 52 weeks, maPP ([3]; mean ambulatory pulse pressure, 52 weeks): −5.9 mmHg | Change from baseline to 12 weeks, maSBP ([3]; mean ambulatory systolic BP, 12 weeks): −9.1 mmHg | Change from baseline to 52 weeks, maSBP ([3]; mean ambulatory systolic BP, 52 weeks): −14.3 mmHg | percentage of patients who discontinued the study [4]: 18.7% | percentage of patients who discontinued the study due to an AE [4]: 5.3% | percentage of patients with AEs [4]: 53.8% | percentage of patients with SAEs [4]: 5.8%
